# Measured values: patent US10738057B2, “Tertiary alcohols as PI3K-γ inhibitors” (Incyte Corporation, priority 2017, dated 2020)
# Where a name gives a salt, the structure may show the parent alone. Read-outs that look alike come from different tables or passages of the source.
# How the values were obtained:
# [1] = test system: Phosphorylated Ribosomal Protein S6 (RPS6) in THP-1 cells; assay: THP-1 RPS6 ELISA assay; type: cell-based, Human; settings: serum starved, 2 h compound, 10 nM MCP-1 for 15 min, phospho-RPS6 ELISA, read-out: PI3Kγ_THP1_RPS6_ELISA IC50
# Procedure, shortened: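 Phospho-RPS6 in lysates measured by ELISA at 450 nm, corrected at 540 nm, after MCP-1 challenge (10 nM, 15 min) of THP-1 cells that were starved overnight and exposed to test compound for 2 h at 37° C, 2×10^5 cells/well. Curve fit of percent inhibition gives IC50.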
# [2] = target: PI3Kγ (p110γ) Recombinant Human Protein (Homo sapiens (Human), UniProt P48736); assay: PI3K-γ scintillation proximity assay; type: biochemical; settings: 20 μM PIP2, 2 μM ATP, 13 nM PI3Kγ, 120 min, room temperature
# Procedure, shortened: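 Radiometric SPA in 20 mM MOPS pH 6.7, 10 mM MgCl2, 5 mM DTT, 0.03% CHAPS, 2% DMSO. Stopped with EDTA and WGA SPA beads for scintillation counting. IC50 fitted from % solvent-control activity versus log concentration.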
# [3] = target: PI3Kδ (p110δ/p85α) Recombinant Human Protein (Homo sapiens (Human), UniProt O00329); assay: PI3Kδ scintillation proximity assay; type: biochemical; settings: 20 μM PIP2, 2 μM ATP, 3.4 nM PI3Kδ, 120 min, room temperature; read-out: PI3Kδ IC50
# Procedure, shortened: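 Recombinant human p110δ/p85α was run at room temperature in 20 mM MOPS pH 6.7, 10 mM MgCl2, 5 mM DTT, 0.03% CHAPS, 2% DMSO. Substrates were 20 µM PIP2 and 2 µM ATP with [γ-33P]ATP. Product was captured overnight on WGA SPA beads and counted by scintillation; IC50 fitted from percent of solvent control versus log concentration.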
# [4] = Homo sapiens, THP-1, THP-1 cells
# Sequence of PI3Kδ (p110δ/p85α) Recombinant Human Protein (O00329 whole entry): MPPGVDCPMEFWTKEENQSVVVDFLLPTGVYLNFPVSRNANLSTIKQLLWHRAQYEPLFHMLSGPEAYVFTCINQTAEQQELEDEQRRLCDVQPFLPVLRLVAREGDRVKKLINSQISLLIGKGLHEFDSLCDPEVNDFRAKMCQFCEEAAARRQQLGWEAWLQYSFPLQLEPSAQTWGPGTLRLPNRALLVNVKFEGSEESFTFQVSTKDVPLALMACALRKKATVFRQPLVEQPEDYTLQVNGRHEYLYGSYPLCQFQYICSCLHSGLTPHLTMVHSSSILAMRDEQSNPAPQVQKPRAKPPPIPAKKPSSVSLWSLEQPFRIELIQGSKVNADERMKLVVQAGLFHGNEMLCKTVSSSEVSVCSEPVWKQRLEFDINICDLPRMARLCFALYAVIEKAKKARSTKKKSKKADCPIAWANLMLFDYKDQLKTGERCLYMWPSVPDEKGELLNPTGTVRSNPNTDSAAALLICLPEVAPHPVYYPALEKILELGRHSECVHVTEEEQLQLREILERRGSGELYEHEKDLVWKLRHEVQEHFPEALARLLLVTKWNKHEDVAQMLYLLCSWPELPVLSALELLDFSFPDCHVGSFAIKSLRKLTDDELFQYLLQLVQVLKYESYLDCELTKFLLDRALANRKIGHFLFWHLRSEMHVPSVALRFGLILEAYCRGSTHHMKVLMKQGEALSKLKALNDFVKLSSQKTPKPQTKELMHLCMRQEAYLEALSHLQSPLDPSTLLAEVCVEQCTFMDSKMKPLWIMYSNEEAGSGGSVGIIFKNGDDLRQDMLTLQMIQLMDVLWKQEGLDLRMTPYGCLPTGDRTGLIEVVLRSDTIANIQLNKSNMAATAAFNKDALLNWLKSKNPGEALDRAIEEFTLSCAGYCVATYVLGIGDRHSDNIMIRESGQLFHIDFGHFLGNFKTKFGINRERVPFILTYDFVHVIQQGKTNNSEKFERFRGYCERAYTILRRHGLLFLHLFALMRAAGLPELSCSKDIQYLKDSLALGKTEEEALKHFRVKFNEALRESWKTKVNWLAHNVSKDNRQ
# Sequence of PI3Kδ (p110δ/p85α) Recombinant Human Protein (P27986 whole entry partner): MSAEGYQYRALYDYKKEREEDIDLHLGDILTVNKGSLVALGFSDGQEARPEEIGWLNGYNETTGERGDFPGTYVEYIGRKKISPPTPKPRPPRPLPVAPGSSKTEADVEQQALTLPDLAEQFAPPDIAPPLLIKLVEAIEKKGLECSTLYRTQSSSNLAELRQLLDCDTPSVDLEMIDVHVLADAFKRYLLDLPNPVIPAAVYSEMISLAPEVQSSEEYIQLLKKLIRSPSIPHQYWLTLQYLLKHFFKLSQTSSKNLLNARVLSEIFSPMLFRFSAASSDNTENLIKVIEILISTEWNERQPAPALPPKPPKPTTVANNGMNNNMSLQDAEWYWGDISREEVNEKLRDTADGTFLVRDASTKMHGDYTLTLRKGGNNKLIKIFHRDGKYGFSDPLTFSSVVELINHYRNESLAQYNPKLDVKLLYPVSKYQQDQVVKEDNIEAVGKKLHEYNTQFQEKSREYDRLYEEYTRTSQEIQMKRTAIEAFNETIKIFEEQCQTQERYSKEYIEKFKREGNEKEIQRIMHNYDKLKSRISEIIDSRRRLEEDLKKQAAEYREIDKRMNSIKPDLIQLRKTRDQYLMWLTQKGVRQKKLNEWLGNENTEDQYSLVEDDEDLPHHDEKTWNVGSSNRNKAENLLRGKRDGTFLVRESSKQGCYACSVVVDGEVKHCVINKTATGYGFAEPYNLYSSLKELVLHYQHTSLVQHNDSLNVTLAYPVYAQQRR
# Sequence of PI3Kγ (p110γ) Recombinant Human Protein (P48736 whole entry): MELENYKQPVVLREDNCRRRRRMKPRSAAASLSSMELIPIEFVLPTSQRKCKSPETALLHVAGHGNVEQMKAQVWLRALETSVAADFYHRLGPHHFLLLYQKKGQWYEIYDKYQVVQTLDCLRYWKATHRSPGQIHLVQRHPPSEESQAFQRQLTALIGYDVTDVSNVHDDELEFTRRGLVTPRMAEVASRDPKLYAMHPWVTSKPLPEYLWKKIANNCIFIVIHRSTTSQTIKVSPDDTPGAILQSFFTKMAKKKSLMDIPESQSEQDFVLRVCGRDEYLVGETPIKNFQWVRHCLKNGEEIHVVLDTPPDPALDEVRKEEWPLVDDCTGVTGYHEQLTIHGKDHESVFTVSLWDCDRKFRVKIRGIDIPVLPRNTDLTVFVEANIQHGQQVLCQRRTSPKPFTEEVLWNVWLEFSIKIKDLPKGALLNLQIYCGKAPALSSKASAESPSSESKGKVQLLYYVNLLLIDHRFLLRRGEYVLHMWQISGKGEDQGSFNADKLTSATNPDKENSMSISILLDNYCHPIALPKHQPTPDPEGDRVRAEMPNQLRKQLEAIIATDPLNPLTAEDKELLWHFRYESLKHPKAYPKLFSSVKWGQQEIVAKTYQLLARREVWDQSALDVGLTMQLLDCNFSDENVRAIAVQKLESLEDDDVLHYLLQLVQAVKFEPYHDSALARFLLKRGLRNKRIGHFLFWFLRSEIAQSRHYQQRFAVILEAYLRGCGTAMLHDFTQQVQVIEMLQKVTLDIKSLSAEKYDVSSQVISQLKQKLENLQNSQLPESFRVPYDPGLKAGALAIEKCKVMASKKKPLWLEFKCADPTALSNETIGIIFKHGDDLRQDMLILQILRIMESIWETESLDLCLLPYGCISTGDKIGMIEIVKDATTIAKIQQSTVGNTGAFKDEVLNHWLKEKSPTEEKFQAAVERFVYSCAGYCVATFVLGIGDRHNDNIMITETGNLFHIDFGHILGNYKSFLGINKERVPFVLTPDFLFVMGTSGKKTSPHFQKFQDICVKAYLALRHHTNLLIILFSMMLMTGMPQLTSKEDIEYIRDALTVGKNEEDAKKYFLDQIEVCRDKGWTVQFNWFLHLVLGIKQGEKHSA
IC50 [2] [nM],IC50 [3] [nM],"IC50 [1, 4] [nM]",Structure (SMILES),IC50 ([1]; THP-1 cells) [nM]
< 100,100 to 500,,"Cc1ccc(C(C)(O)C(F)F)cc1-c1cnc2c(N)nc(C(F)(F)F)cn12 (single isomer, unassigned) [Example 27, 2-(3-(8-Amino-6-(trifluoromethyl)imidazo[1,2-a]pyrazin-3-yl)-4-methylphenyl)-1,1-difluoropropan-2-ol]",100 to 500
< 100,< 100,< 100,"Cc1ccc(C(O)(C(=O)NC23CC(C2)C3)C(F)(F)F)cc1-c1cnc2c(N)nc(C(F)(F)F)cn12 (stereo not drawn) [Example 129, 2-(3-(8-Amino-6-(trifluoromethyl)imidazo[1,2-a]pyrazin-3-yl)-4-methylphenyl)-N-(bicyclo[1.1.1]pentan-1-yl)-3,3,3-trifluoro-2-hydroxypropanamide trifluoroacetate salt]",
< 100,100 to 500,100 to 500,"[2H]C([2H])([2H])c1ccc(C(O)(C(C)O)C(F)(F)F)cc1-c1cnc2c(N)nc(C(F)(F)F)cn12 (single isomer, unassigned) [Example 233, 2-(3-(8-Amino-6-(trifluoromethyl)imidazo[1,2-a]pyrazin-3-yl)-4-(methyl-d3)phenyl)-1,1,1-trifluorobutane-2,3-diol trifluoroacetate salt]",
< 100,100 to 500,> 1000,"Cc1ccc(C(O)(C(=O)O)C(F)(F)F)cc1-c1cnc2c(N)nc(C(F)(F)F)cn12 (stereo not drawn) [Example 120, 2-(3-(8-amino-6-(trifluoromethyl)imidazo[1,2-a]pyrazin-3-yl)-4-methylphenyl)-3,3,3-trifluoro-2-hydroxypropanoic acid]",
< 100,100 to 500,< 100,"Cc1ccc(C(O)(C(N)=O)C(F)(F)F)cc1-c1cnc2c(N)nc(C(=O)NCC(C)(C)O)cn12 (stereo not drawn) [Example 284, 8-Amino-3-(5-(3-amino-1,1,1-trifluoro-2-hydroxy-3-oxopropan-2-yl)-2-methylphenyl)-N-(2-hydroxy-2-methylpropyl)imidazo[1,2-a]pyrazine-6-carboxamide]",
< 100,100 to 500,100 to 500,"Cc1ccc(C(C)(O)C(F)F)cc1-c1cnc2c(N)nc(-n3cncn3)cn12 (stereo not drawn) [Example 49, 2-(3-(8-Amino-6-(1H-1,2,4-triazol-1-yl)imidazo[1,2-a]pyrazin-3-yl)-4-methylphenyl)-1,1-difluoropropan-2-ol]",
< 100,100 to 500,100 to 500,"Cc1ccc(C(C)(O)C(F)F)cc1-c1cnc2c(N)nc(-c3cnn(C4(CC#N)CN(C(=O)C5CCC5)C4)c3)cn12 (stereo not drawn) [Example 100, 2-(3-(4-(8-amino-3-(5-(1,1-difluoro-2-hydroxypropan-2-yl)-2-methylphenyl)imidazo[1,2-a]pyrazin-6-yl)-1H-pyrazol-1-yl)-1-(cyclobutanecarbonyl)azetidin-3-yl)acetonitrile]",
< 100,500 to 2000,500 to 1000,"Cc1ccc(C(O)C(F)(F)F)cc1-c1cnc2c(N)nc(C(F)(F)F)cn12 (stereo not drawn) [Example 23, 1-(3-(8-Amino-6-(trifluoromethyl)imidazo[1,2-a]pyrazin-3-yl)-4-methylphenyl)-2,2,2-trifluoroethan-1-ol trifluoroacetate salt]",
< 100,100 to 500,> 1000,"Cc1ccc(C(O)(C2CC2)C(F)(F)F)cc1-c1cnc2c(N)nc(C(F)(F)F)cn12 (stereo not drawn) [Example 19, 1-(3-(8-Amino-6-(trifluoromethyl)imidazo[1,2-a]pyrazin-3-yl)-4-methylphenyl)-1-cyclopropyl-2,2,2-trifluoroethan-1-ol]",

Structure (SMILES),IC50 [2] [nM],IC50 [3] [nM],"IC50 [1, 4] [nM]",IC50 ([1]; THP-1 cells) [nM]
"CNCCC(O)(c1ccc(C)c(-c2cnc3c(N)nc(C(F)(F)F)cn23)c1)C(F)(F)F (single isomer, unassigned) [Example 16, 2-(3-(8-Amino-6-(trifluoromethyl)imidazo[1,2-a]pyrazin-3-yl)-4-methylphenyl)-1,1,1-trifluoro-4-(methylamino)butan-2-ol]",< 100,100 to 500,,500 to 1000
